Experimental data from PubChem BioAssay (NCI).
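96-well plates; 48 h exposure; 5 concentrations. Endpoints by linear interpolation between flanking doses. Not reached: highest tested concentration assigned. At the GI50, growth is halved. The concentration for full growth arrest is given as TGI.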

Tests used:
Test in all cases: NCI anticancer screen, dose series, 48 h
HCT-15 colon = test system: HCT-15 colon
HL-60(TB) leukemia = test system: HL-60(TB) leukemia
HOP-62 NSCLC = test system: HOP-62 NSCLC
HT29 colon = test system: HT29 colon
M14 melanoma = test system: M14 melanoma
MALME-3M melanoma = test system: MALME-3M melanoma
MDA-N = test system: MDA-N
NCI-H460 lung = test system: NCI-H460 lung
RPMI-8226 leukemia = test system: RPMI-8226 leukemia
SF-539 CNS = test system: SF-539 CNS
NCI-H23 lung = test system: NCI-H23 lung

Row | Compound | TGI (HCT-15 colon) [µM] | TGI (HL-60(TB) leukemia) [µM] | TGI (HOP-62 NSCLC) [µM] | TGI (HT29 colon) [µM] | TGI (M14 melanoma) [µM] | TGI (MALME-3M melanoma) [µM] | TGI (MDA-N) [µM] | TGI (NCI-H460 lung) [µM] | TGI (RPMI-8226 leukemia) [µM] | TGI (SF-539 CNS) [µM] | TGI (NCI-H23 lung) [µM] | GI50 (HT29 colon) [µM] | GI50 (M14 melanoma) [µM] | GI50 (NCI-H23 lung) [µM] | GI50 (RPMI-8226 leukemia) [µM] | GI50 (SF-539 CNS) [µM]
1 | COc1ccc(C2CCc3nc4nc(N)nc(N)c4cc3C2)cc1 (stereo unspecified) | > 100 | > 100 | 33.9 | 94.3 | > 100 | > 100 | > 100 | > 100 | > 100 | 30.9 |  |  |  |  |  | 
2 | COc1ccc2nc(-c3ccc(OC(=O)N(C)C)cc3)cn2c1 |  | > 100 | > 100 | > 100 | > 100 | > 100 | > 100 | > 100 |  |  | > 100 |  |  |  |  | 
3 | CCN(CC)CCNc1ccc([N+](=O)[O-])c2nc3ccccc3c(N)c12 | 1.75 | 2.11 | > 10 | 2.28 | 1.67 |  | 2.14 | 1.24 | 6.18 | 1.84 | 2.03 |  |  |  |  | 
4 | CN(C)c1nc(N(C)C)nc(N(C)CN(C)c2ccccc2)n1 | > 100 | > 100 |  | > 100 |  | > 100 |  | > 100 |  | > 100 | > 100 |  |  |  |  | 
5 | NC(=O)c1cnc2sc3ccccc3n2c1=O | > 100 | > 100 | > 100 | > 100 | > 100 | > 100 | > 100 | > 100 | > 100 | > 100 |  |  |  |  |  | 
6 | CCCS(=O)(=O)O | > 100 | > 100 | > 100 | > 100 | > 100 | > 100 |  | > 100 | > 100 | > 100 | > 100 |  |  |  |  | 
7 | Cc1ccc2nc3c(C(=O)NCCN(C)C)cccc3cc2c1 | 4.91 | 3.72 | 7.05 | 4.79 |  | 4.58 |  | 2.36 | 7.12 | 10.1 | 4.21 |  |  |  |  | 
8 | Cc1nn2c(N)cc(=O)nc2nc1/C=C/c1ccc(N(C)C)cc1 | > 27.9 | 0.0117 | > 100 | > 100 | > 100 | 49.8 | > 100 | > 100 | > 100 |  | > 100 |  |  |  |  | 
9 | CSc1ccc2c(c1)c(CCN)c(C)n2Cc1ccc(Cl)c(Cl)c1 |  |  |  | 2.92 | 3.22 |  |  |  | 4.66 | 3.04 | 3.3 | 1.49 | 1.69 | 1.73 | 2.14 | 1.6
10 | N#CS/C(C(Cl)=C(Cl)Cl)=C(/Cl)[N+](=O)[O-] | 6.59 | 0.512 | 33.4 |  | 2.79 | 3.25 | 3.18 | 33.2 | 4.25 | 16.1 | 7.95 |  |  |  |  | 
11 | N#CC12COC3(CCCCC3C1(C#N)C#N)OC2=N (stereo unspecified) |  |  |  | 26.1 | 22.4 | 35.6 | 25.5 | 29.4 |  | 27.5 | 37.2 |  |  |  |  | 
12 | NCCCNCCSSCc1ccccc1CSSCCNCCCN | > 100 | 29.8 | > 100 | 27.4 | > 100 | > 100 |  | > 100 | > 100 | > 100 | > 100 |  |  |  |  | 
